This assay is described as follows: Inhibition of Escherichia coli BL21-A1 MurD.

This is an account of results in ChEMBL document CHEMBL1138473, “NMR and molecular dynamics study of the binding mode of naphthalene-N-sulfonyl-D-glutamic acid derivatives: novel MurD ligase inhibitors” (J Med Chem, 2009).

As a reminder, the IC50 is the midpoint of a concentration-inhibition curve.

Compound `O=C(O)CC[C@@H](NS(=O)(=O)c1ccc2cc(OCc3ccccc3)ccc2c1)C(=O)O` showed an IC50 of 239 µM.
The value for `O=C(O)CC[C@@H](NS(=O)(=O)c1ccc2cc(OCCCc3ccccc3)ccc2c1)C(=O)O` was 132 µM; that for `CCCCOc1ccc2cc(S(=O)(=O)N[C@@H](CCC(=O)O)C(=O)O)ccc2c1` was 710 µM; that for `O=C(O)CC[C@@H](NS(=O)(=O)c1ccc2cc(OCC(=O)O)ccc2c1)C(=O)O` was 630 µM.
Consider `O=C(O)CC[C@@H](NS(=O)(=O)c1ccc2cc(OC3CCCC3)ccc2c1)C(=O)O`, for which the midpoint of inhibition, the IC50, lay at 400 µM.
As for `O=C(O)CC[C@@H](NS(=O)(=O)c1ccc2ccccc2c1)C(=O)O`, the midpoint of inhibition, the IC50, lay at 810 µM. Compared with the last compound, the IC50 is about 2-fold higher.
As to `CCCCOc1ccc2ccc(S(=O)(=O)N[C@H](CCC(=O)O)C(=O)O)cc2c1`, the IC50 is 180 µM.
The value for `CCOC(=O)COc1ccc2cc(S(=O)(=O)N[C@H](CCC(=O)O)C(=O)O)ccc2c1` was 192 µM.
The figure for `CCCCOc1ccc2cc(S(=O)(=O)N[C@H](CCC(=O)O)C(=O)O)ccc2c1` is 280 µM.
